Test results reported in US20180086789A1, “PHARMACEUTICAL COMPOUND” (VALLAURIX PTE. LTD., priority 2015, published 2018).
Non-standard residues stand in square brackets, D forms with d. hArg = N=C(N)NCCCC[C@H](N)C(=O)O; Nle = CCCC[C@H](N)C(=O)O

Key:
tyrosinase = assay: Effects on tyrosinase activity in human melanocyte culture 1750 (3H-labeled tyrosine); assay type: cell-based
Protocol: The compound with formula structure Ac-Nle-Glu-His-D-Phe-homoArg-Trp-NH2 of the invention was tested using human melanocyte culture coded 1750 that expressed functional MC1R. The melanocytes were plated at a density of 0.3*10^6 cells onto 60 mm dishes (triplicate dishes/group). After 48 hours, the melanocytes were treated every other day for a total of six days with different doses (10^−12 M to 10^−7 M) of the compound. A control without compound was included in the test. […] On treatment day 5, ^3H-labeled tyrosine, the substrate for tyrosinase, was added and 24 hours later, the supernatant was saved to be assayed for tyrosinase activity as described by Suzuki et al (see example 2). Duplicate samples from each were assayed, with triplicate dishes included in each group. Cell number in each dish was counted, and tyrosinase activity was expressed as dpm/10^6 cells and as % of the control. Statistical analysis was carried out using ANOVA followed by Newman Kuels test.
It will be understood that this tyrosinase activation test relates to a late event after MC1R activation, compared to the earlier secondary messenger effect of the above cAMP test. As pointed out above, activity of tyrosinase requires days of treatment.

MC1R = target: T1, MC1R (Homo sapiens, UniProt Q01726); assay: Effects on cAMP in human melanocyte culture 1753 (radioimmunoassay); assay type: cell-based
T1 construct: human melanocyte culture coded 1753 that expressed functional MC1R; endogenous in cells; host or cells: human melanocyte culture coded 1753
T1 sequence (Q01726 whole entry): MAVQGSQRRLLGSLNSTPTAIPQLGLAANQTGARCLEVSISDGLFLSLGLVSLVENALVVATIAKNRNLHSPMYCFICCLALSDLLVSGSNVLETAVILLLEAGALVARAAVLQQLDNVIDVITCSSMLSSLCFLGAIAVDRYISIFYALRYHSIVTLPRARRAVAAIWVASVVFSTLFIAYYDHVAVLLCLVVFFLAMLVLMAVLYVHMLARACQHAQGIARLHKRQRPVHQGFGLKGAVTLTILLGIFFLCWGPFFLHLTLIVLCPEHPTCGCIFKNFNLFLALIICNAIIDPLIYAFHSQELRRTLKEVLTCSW
Protocol: The compound with formula structure Ac-Nle-Glu-His-D-Phe-homoArg-Trp-NH2 of the invention was tested using human melanocyte culture coded 1753 that expressed functional MC1R. The melanocytes were plated at a density of 0.3*10^6 cells/well. After 48 hours, the melanocytes were treated with different compound concentrations (10^−12 to 10^−7 M) for 1 hour. A control without compound was included in the test. […] The reaction was stopped by addition of 50 μl 1 N HCl and the supernatant in each well was used to measure cAMP using a radioimmunoassay as described by Suzuki 1996 (Suzuki I, Cone R D, Im S, Nordlund J J, Abdel-Malek Z: “Binding of melanotropic hormones to the MC1 receptor on human melanocytes stimulates proliferation and melanogenesis”. Endocrinology 137: 1627-1633, 1996). Duplicate samples from each well were assayed with triplicate wells included in each group. The mean of 6 cAMP measurements per group was expressed as % of the control group. Statistical analysis was carried out using ANOVA followed by Newman Kuels test. In some cases, unpaired t-test was used.

[1] = concentrations from 10^−10 M to 10^−7M

tyrosinase activity, highest efficacy, % of the control (tyrosinase; 10^−8 M, six days of treatment, human melanocyte culture 1750 expressing functional MC1R): 227%
tyrosinase activity, efficacy, % of the control (tyrosinase; 10^−9 M, six days of treatment, human melanocyte culture 1750 expressing functional MC1R): 198%
cAMP, highest efficacy, expressed as % of the control group (MC1R; 10^−7M, 1 hour treatment, human melanocyte culture 1753 expressing functional MC1R): 216%
Substance: Ac-[Nle]EH[dF][hArg]W-NH2 [compound of the invention]
tyrosinase activity results statistically different compared to the control (p<0.05) (tyrosinase; [1]): statistically different compared to the control
cAMP results statistically different compared to the control (p<0.05) (MC1R; [1]): statistically different compared to the control
